Results reported in patent US20240082296A1, “TREATMENT OF MUSCLE ATROPHY USING DEXTRAN SULFATE” (TX MEDIC AB, priority 2020, published 2024).
Marks after values point to notes of the source that are not given here.

Test system: severe traumatic brain injury (sTBI) in rats
Test: HPLC of purine-pyrimidine / energy metabolites in rat brain after sTBI (Example 4)
Type: in vivo
Description: The effects of daily sub-cutaneous injections of dextran sulfate on glutamate excitotoxicity and mitochondrial function after severe traumatic brain injury (sTBI) in rats were evaluated by high-performance liquid chromatography (HPLC) analysis of frozen brain samples.
The experimental protocol used in this study was approved by the Ethical Committee of the Catholic University of Rome, according to international standards and guidelines for animal care. Male Wistar rats of 300-350 g body weight (b.w.) were fed with standard laboratory diet and water ad libitum in a controlled environment.
They were divided into three groups: • 1) n=6 animals subjected to sTBI, with drug administration after 30 minutes and sacrifice at 2 days post-TBI (Acute phase 1) • 2) n=6 animals subjected to severe-TBI, with drug administration after 30 minutes and sacrifice at 7 days post-TBI (Acute phase 2). • 3) n=6 animals subjected to severe-TBI, with drug administration after 3 days and sacrifice at 7 days post-TBI (Chronic phase).
As the anesthetic mixture, animals received 35 mg/kg b.w. ketamine and 0.25 mg/kg b.w. midazolam by i.p. injection. sTBI was induced by dropping a 450 g weight from 2 m height on to the rat head that had been protected by a metal disk previously fixed on the skull, according to the “weight drop” impact acceleration model (Marmarou et al., A new model of diffuse brain injury in rats. Part I: Pathophysiology and biomechanics. J Neurosurg. 1994; 80: 291-300). […] At the end of each period of treatment, rats were anesthetized again and then immediately sacrificed.
The drug treatment was a subcutaneous injection of 0.5 ml of dextran sulfate (Tikomed AB, Viken, Sweden, WO 2016/076780; 15 mg/kg) and administered according to the aforementioned schematic protocol.
An in vivo craniectomy was performed in all animals during anesthesia, after carefully removing the rat's skull, the brain was exposed and removed with a surgical spatula and quickly dropped in liquid nitrogen. After the wet weight (w.w.) determination, tissue preparation was affected as previously disclosed (Tavazzi et al., Cerebral oxidative stress and depression of energy metabolism correlate with severity of diffuse brain injury in rats. Neurosurgery. 2005; 56: 582-589; Vagnozzi et al., Temporal window of metabolic brain vulnerability to concussions: mitochondrial-related impairment-part I. Neurosurgery. 2007; 61: 379-388; Tavazzi et al., Temporal window of metabolic brain vulnerability to concussions: oxidative and nitrosative stresses-part II. Neurosurgery. 2007; 61: 390-395; Amorini et al., Severity of experimental traumatic brain injury modulates changes in concentrations of cerebral free amino acids. J Cell Mol Med. 2017; 21: 530-542.). Briefly, whole brain homogenization was performed with 7 ml of ice-cold, nitrogen-saturated, precipitating solution composed by CH3CN+10 mM KH2PO4, pH 7.40, (3:1; v:v), and using an Ultra-Turrax set at 24,000 rpm/min (Janke & Kunkel, Staufen, Germany). After centrifugation at 20,690×g, for 10 min at 4° C., the clear supernatants were saved, pellets were supplemented with 3 ml of the precipitating solution and homogenized again as described above. A second centrifugation was performed (20,690×g, for 10 min at 4° C.), pellets were saved, supernatants combined with those previously obtained, extracted by vigorous agitation with a double volume of HPLC-grade CHCl3 and centrifuged as above. The upper aqueous phases containing water-soluble low-molecular weight compounds were collected, subjected to chloroform washings for two more times (this procedure allowed the removal of all the organic solvent and of any lipid soluble compound from the buffered tissue extracts), adjusted in volumes with 10 mM KH2PO4, pH 7.40, to have ultimately aqueous 10% tissue homogenates and saved at −80° C. until assayed. […]

[1] = Acute phase 2 (15 mg/kg s.c. 30 min after sTBI, sacrifice 7 days post-TBI)
[2] = Chronic phase (15 mg/kg s.c. 3 days after sTBI, sacrifice 7 days post-TBI)
[3] = rat brain after sTBI, after administration

**Q.** For dextran sulfate, which UDP-GalNac concentration [1] is on record?
**A.** 19.90 ± 3.12^a,e nmol/g (w.w.)

**Q.** And the UDP-Glc concentration [1]?
**A.** 44.44 ± 7.59^j nmol/g (w.w.)

**Q.** And the UDP-GlcNac concentration [1]?
**A.** 130.65 ± 28.41^a nmol/g (w.w.)

**Q.** What about the UMP concentration [1] of the same substance?
**A.** 138.73 ± 32.01^b nmol/g (w.w.)

**Q.** And the UTP concentration [1]?
**A.** 146.71 ± 32.68^e nmol/g (w.w.)

**Q.** And the acetyl-CoA concentration [1]?
**A.** 36.86 ± 4.11^e nmol/g (w.w.)

**Q.** What about the adenine concentration [1] of the same substance?
**A.** 58.16 ± 6.36^a,f nmol/g (w.w.)

**Q.** And the ascorbic acid concentration [1]?
**A.** 3512.58 ± 224.62^a,e nmol/g (w.w.)

**Q.** What about the creatinine concentration [1] of the same substance?
**A.** 37.27 ± 5.82^a,e,j nmol/g (w.w.)

**Q.** What about the cytidine concentration [1] of the same substance?
**A.** 16.18 ± 4.21^e nmol/g (w.w.)

**Q.** And the cytosine concentration [1]?
**A.** 15.70 ± 4.10^f nmol/g (w.w.)

**Q.** What about the guanine concentration [1] of the same substance?
**A.** 4.73 ± 1.07 nmol/g (w.w.)

**Q.** What about the guanosine concentration [1] of the same substance?
**A.** 17.90 ± 3.24^j nmol/g (w.w.)

**Q.** What about the hypoxanthine concentration [1] of the same substance?
**A.** 12.90 ± 2.58^a,j nmol/g (w.w.)

**Q.** And the inosine concentration [1]?
**A.** 85.52 ± 20.36^e nmol/g (w.w.)

**Q.** What about the malonyl-CoA concentration [1] of the same substance?
**A.** 11.29 ± 2.27^b nmol/g (w.w.)

**Q.** What about the orotic acid concentration [1] of the same substance?
**A.** 13.34 ± 3.65^a nmol/g (w.w.)

**Q.** What about the thymidine concentration [1] of the same substance?
**A.** 0.49 ± 0.20^f nmol/g (w.w.)

**Q.** And the uracil concentration [1]?
**A.** 19.40 ± 7.52^a,e nmol/g (w.w.)

**Q.** What about the uric acid concentration [1] of the same substance?
**A.** 19.17 ± 2.15^a,h,i nmol/g (w.w.)

**Q.** And the uridine concentration [1]?
**A.** 63.02 ± 9.66^b,e nmol/g (w.w.)

**Q.** What about the xanthine concentration [1] of the same substance?
**A.** 10.41 ± 2.11^f nmol/g (w.w.)

**Q.** And the β-pseudouridine concentration [1]?
**A.** 13.26 ± 3.16^a,e,j nmol/g (w.w.)

**Q.** And the ADO concentration [2]?
**A.** 89.97 ± 12.98^a nmol/g (w.w.)

**Q.** And the ADP concentration [2]?
**A.** 315.53 ± 46.53^a nmol/g (w.w.)

**Q.** And the ADP-ribose concentration [2]?
**A.** 173.94 ± 8.45^a nmol/g (w.w.)

**Q.** And the AMP concentration [2]?
**A.** 90.01 ± 21.24^a nmol/g (w.w.)

**Q.** What about the ATP concentration [2] of the same substance?
**A.** 1381.03 ± 212.64^a nmol/g (w.w.)

**Q.** What about the CDP choline concentration [2] of the same substance?
**A.** 8.37 ± 2.19 nmol/g (w.w.)

**Q.** And the CDP concentration [2]?
**A.** 23.55 ± 6.45^a nmol/g (w.w.)

**Q.** And the CMP concentration [2]?
**A.** 20.51 ± 3.73^a,f nmol/g (w.w.)

**Q.** And the CTP concentration [2]?
**A.** 25.23 ± 2.93^a,f nmol/g (w.w.)

**Q.** And the CoA-SH concentration [2]?
**A.** 27.58 ± 6.24^f nmol/g (w.w.)

**Q.** And the GDP concentration [2]?
**A.** 173.05 ± 28.68^a,e nmol/g (w.w.)

**Q.** And the GDP glucose concentration [2]?
**A.** 43.85 ± 5.06^b nmol/g (w.w.)

**Q.** And the GMP concentration [2]?
**A.** 148.56 ± 31.21^a nmol/g (w.w.)

**Q.** What about the GSH concentration [2] of the same substance?
**A.** 2608.67 ± 358.07^a,e nmol/g (w.w.)

**Q.** And the GSSG concentration [2]?
**A.** 231.08 ± 44.34^b,f nmol/g (w.w.)

**Q.** And the GTP concentration [2]?
**A.** 290.92 ± 34.68^a,f nmol/g (w.w.)

**Q.** And the IMP concentration [2]?
**A.** 99.29 ± 13.82^a nmol/g (w.w.)

**Q.** What about the MDA concentration [2] of the same substance?
**A.** 11.62 ± 3.90^a,e nmol/g (w.w.)

**Q.** What about the NAA concentration [2] of the same substance?
**A.** 6375.36 ± 974.12^a,e nmol/g (w.w.)

**Q.** What about the NADH concentration [2] of the same substance?
**A.** 11.78 ± 3.32^e nmol/g (w.w.)

**Q.** What about the NADPH concentration [2] of the same substance?
**A.** 7.34 ± 2.65^f nmol/g (w.w.)

**Q.** And the “NADP^+ concentration” value [2]?
**A.** 16.44 ± 2.66^a,f nmol/g (w.w.)

**Q.** What about the “NAD^+ concentration” value [2] of the same substance?
**A.** 301.13 ± 29.90^a nmol/g (w.w.)

**Q.** What about the NO2 concentration [2] of the same substance?
**A.** 217.67 ± 55.04^a nmol/g (w.w.)

**Q.** And the NO3 concentration [2]?
**A.** 241.27 ± 18.84^e nmol/g (w.w.)

**Q.** And the UDP concentration [2]?
**A.** 57.40 ± 5.88^a,f nmol/g (w.w.)

**Q.** And the UDP-Gal concentration [2]?
**A.** 122.29 ± 12.15 nmol/g (w.w.)

**Q.** And the UDP-GalNac concentration [2]?
**A.** 21.84 ± 2.80^a,e nmol/g (w.w.)

**Q.** And the UDP-Glc concentration [2]?
**A.** 35.79 ± 3.45^b nmol/g (w.w.)

**Q.** What about the UDP-GlcNac concentration [2] of the same substance?
**A.** 129.42 ± 15.88^b nmol/g (w.w.)

**Q.** And the UMP concentration [2]?
**A.** 103.11 ± 29.79 nmol/g (w.w.)

**Q.** What about the UTP concentration [2] of the same substance?
**A.** 136.80 ± 33.25^f nmol/g (w.w.)

**Q.** What about the acetyl-CoA concentration [2] of the same substance?
**A.** 35.68 ± 6.55^e nmol/g (w.w.)

**Q.** What about the adenine concentration [2] of the same substance?
**A.** 52.94 ± 8.59^a,f nmol/g (w.w.)

**Q.** What about the ascorbic acid concentration [2] of the same substance?
**A.** 3375.03 ± 856.41^a,e nmol/g (w.w.)

**Q.** And the creatinine concentration [2]?
**A.** 51.25 ± 10.17^a,f nmol/g (w.w.)

**Q.** And the cytidine concentration [2]?
**A.** 14.71 ± 2.83^e nmol/g (w.w.)

**Q.** What about the cytosine concentration [2] of the same substance?
**A.** 15.58 ± 2.50^b,f nmol/g (w.w.)

**Q.** And the guanine concentration [2]?
**A.** 5.31 ± 1.04^b nmol/g (w.w.)

**Q.** What about the guanosine concentration [2] of the same substance?
**A.** 28.87 ± 7.60^a,f nmol/g (w.w.)

**Q.** What about the hypoxanthine concentration [2] of the same substance?
**A.** 17.97 ± 4.49^a nmol/g (w.w.)

**Q.** And the inosine concentration [2]?
**A.** 105.81 ± 25.57^f nmol/g (w.w.)

**Q.** What about the malonyl-CoA concentration [2] of the same substance?
**A.** 10.00 ± 1.95^b nmol/g (w.w.)

**Q.** And the orotic acid concentration [2]?
**A.** 12.05 ± 1.50^a nmol/g (w.w.)

**Q.** And the thymidine concentration [2]?
**A.** 0.71 ± 0.11 nmol/g (w.w.)

**Q.** And the uracil concentration [2]?
**A.** 16.57 ± 2.99^a,f nmol/g (w.w.)

**Q.** And the uric acid concentration [2]?
**A.** 27.77 ± 3.60^a nmol/g (w.w.)

**Q.** What about the uridine concentration [2] of the same substance?
**A.** 63.28 ± 3.37^f nmol/g (w.w.)

**Q.** What about the xanthine concentration [2] of the same substance?
**A.** 9.35 ± 0.83^f nmol/g (w.w.)

**Q.** What about the β-pseudouridine concentration [2] of the same substance?
**A.** 18.62 ± 2.80^a nmol/g (w.w.)

**Q.** What about the cerebral nitrate concentrations (both the acute and chronic phases of sTBI) of the same substance?
**A.** significantly decreased

**Q.** And the “cerebral GSH level” value [3]?
**A.** significant improvement

**Q.** What about the “cerebral MDA levels” value [3] of the same substance?
**A.** significant reduction

**Q.** What about the “cerebral NAA and its substrates” value [3] of the same substance?
**A.** significant improvements

**Q.** And the “cerebral ascorbic acid level” value [3]?
**A.** significant improvement
